System: Archaea
Test: Laboratory Study 4: methane concentration in control and test samples with AMRs
Type: cell-based
Description: Use of diallyl sulfide, which may be considered a synthetic garlic oil (GOS), was evaluated for its ability to control Archaea compared to the effects of other potential AMRs such as natural/pressed Garlic Oil (GO) and dehydrated Garlic Powder (GP). Control samples with and without contaminants were captured along with test samples that included contaminants and different concentrations (250 ppm and 500 ppm) of different AMRs (GO, GOS and GP). The concentration of methane in each of the samples was measured at 0, 9, 16 and 23 days.

SMILES: C=CCSCC=C [GOS, diallyl sulfide]
- control response in terms of methane production (250 ppm and 500 ppm, 23 days incubation): best control response
- length and magnitude of antimethanogenic responses (500 ppm lasting longer than 250 ppm): concentration dependent

Reference: patent US20180093308A1, “METHANOGENESIS CONTROL DURING ENVIRONMENTAL APPLICATIONS USING ANTIMETHANOGENIC REAGENTS” (Innovative Environmental Technologies, Inc, priority 2016, published 2018)
